Data set [1] addresses T1, human recombinant β1 adrenoceptor (Homo sapiens, UniProt P08588).
T1 construct: expressed in transfected cells
The data set is described as follows: cAMP accumulation, human recombinant β1 adrenoceptor. It counts as cell-based. The procedure:
In order to measure the activity and selectivity of agonists to human β1 and β2 adrenoceptors, the cAMP accumulation of expressed receptors in each recombinant cell line was measured. cAMP was determined by homology radioimmunoassay, that is, cells were washed with PSB buffer solution and suspended in the buffer solution at room temperature to grow to 30000-40000 cells per well. The test compound was diluted with PSB buffer solution containing 0.1% BSA and tested at 11 gradient concentrations ranging from 100 uM to 0.1 pM. For the analysis of β1-adrenoceptor, 10 nM of ICI118551 was added to block the expression of β2-adrenoceptor in HEK293 cells. After the compound was added to the suspended cells, the scintillation plate was incubated at 37° C. for 10 minutes, the reaction was terminated with ice-cold detection buffer solution, and its radioactivity was measured after storage at 4° C. overnight.
The agonistic activity (pEC50 value) was analyzed by regression using S-type dose response model of software package (GraphPad Software, San Diego, Calif.). Selectivity was calculated from the ratio of measured cAMP of β1 and β2 adrenoceptors, which was expressed as sel. β1/β2=(EC50 (β1)/EC50 (β2)).
A general note: Changes in cAMP serve as a functional read-out for many G protein-coupled receptors.

In data set [2] the target is T2, human recombinant β2 adrenoceptor (Homo sapiens, UniProt P07550).
T2 construct: expressed in transfected cells
T2 sequence (P07550 whole entry): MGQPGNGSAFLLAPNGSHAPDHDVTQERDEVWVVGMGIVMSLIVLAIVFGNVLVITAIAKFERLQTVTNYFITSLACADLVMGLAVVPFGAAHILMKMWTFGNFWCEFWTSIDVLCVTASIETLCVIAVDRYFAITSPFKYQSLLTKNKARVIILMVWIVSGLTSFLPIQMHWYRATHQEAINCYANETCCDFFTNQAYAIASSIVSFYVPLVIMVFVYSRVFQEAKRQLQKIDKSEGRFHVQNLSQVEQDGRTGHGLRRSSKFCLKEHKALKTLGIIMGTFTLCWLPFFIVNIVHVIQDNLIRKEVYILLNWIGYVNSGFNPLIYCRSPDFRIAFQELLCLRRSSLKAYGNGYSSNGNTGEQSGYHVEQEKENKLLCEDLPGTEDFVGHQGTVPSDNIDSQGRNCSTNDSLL
The data set is described as follows: cell-based. It counts as cell-based. To be noted: for EC50: cAMP accumulation.

Data set [3] concerns the target human recombinant M3 receptor (Homo sapiens, UniProt P20309). Nature of the data set: biochemical. It counts as binding. To be noted: for M1/M3 / M2/M3: Mx/My = Ki(y)/Ki(x).
In data set [4] the target is human recombinant M2 receptor (Homo sapiens, UniProt P08172). The data set is described as follows: biochemical. It counts as binding.
Sequence of human recombinant M2 receptor (P08172 whole entry): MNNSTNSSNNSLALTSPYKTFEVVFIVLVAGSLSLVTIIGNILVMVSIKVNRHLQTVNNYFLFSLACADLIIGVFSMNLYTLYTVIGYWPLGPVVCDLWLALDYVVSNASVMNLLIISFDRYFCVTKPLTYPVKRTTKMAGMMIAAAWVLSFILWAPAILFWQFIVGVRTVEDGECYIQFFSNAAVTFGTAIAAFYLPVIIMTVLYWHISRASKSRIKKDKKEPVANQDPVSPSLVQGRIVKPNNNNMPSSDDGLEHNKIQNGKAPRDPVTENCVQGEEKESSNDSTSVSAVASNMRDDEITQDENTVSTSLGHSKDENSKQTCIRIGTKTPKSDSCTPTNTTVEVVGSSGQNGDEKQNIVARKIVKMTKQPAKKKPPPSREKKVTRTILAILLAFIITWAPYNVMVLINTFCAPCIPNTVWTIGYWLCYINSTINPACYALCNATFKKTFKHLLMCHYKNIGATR
The target in data set [5] is human recombinant M1 receptor (Homo sapiens, UniProt P11229). Nature of the data set: biochemical. It counts as binding. Particulars: for M1/M2: Mx/My = Ki(y)/Ki(x).
Sequence of human recombinant M1 receptor (P11229 whole entry): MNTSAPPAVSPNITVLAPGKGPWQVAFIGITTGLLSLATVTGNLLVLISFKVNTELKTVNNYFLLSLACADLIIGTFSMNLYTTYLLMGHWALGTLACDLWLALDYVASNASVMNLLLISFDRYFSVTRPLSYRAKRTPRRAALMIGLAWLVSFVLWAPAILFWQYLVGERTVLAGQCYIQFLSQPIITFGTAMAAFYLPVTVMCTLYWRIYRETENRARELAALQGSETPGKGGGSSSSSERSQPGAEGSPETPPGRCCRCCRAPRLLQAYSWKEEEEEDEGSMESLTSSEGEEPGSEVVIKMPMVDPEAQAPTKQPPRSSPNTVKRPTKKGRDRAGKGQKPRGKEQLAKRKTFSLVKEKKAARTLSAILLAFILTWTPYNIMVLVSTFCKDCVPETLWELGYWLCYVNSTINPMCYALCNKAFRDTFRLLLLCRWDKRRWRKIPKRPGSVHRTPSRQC
Data set [6] has as its system tracheal smooth muscle of guinea pig. The data set is described as follows: Relaxation of CCh-induced constriction of isolated guinea pig tracheal smooth muscle (Experimental Example 1). Particulars: in vitro; for Onset time (min) ± SD / Time for eliminating inhibition effect (min): CCh 3 × 10^−6 mol/L; for EC50: constriction induced by CCh 3 × 10^−6 mol/L, read-out: EC50 (μM) ± SD.

Data set [7] can be described thus: Liver microsome metabolic stability in vitro (Beagle dog). Particulars: Beagle dog liver microsomes. The procedure: (§1) The area ratio of the 0 min sample was taken as 100%, and the remaining percentage of the compound after incubation at different times was obtained at each time point by comparison with the sample. With the natural logarithm of this percentage on the ordinate and time on the abscissa, a scatter plot was drawn to simulate a straight line with a negative slope of k. The parameters were calculated according to the formula.
(§2) Liver weight indicates the liver weight (g) per kilogram of body weight, and P450 indicates the amount (mg) of P450 enzyme per gram of liver.

A short description of data set [8]: Liver microsome metabolic stability in vitro (SD rat). Particulars: SD rat liver microsomes. The method, then: as §1, §2
Data set [9] is described as follows: Liver microsome metabolic stability in vitro (human). Particulars: Human liver microsomes. The procedure:
as §1, §2

For data set [10], the system named is heart rate of Beagle dogs. The data set is described as follows: Heart rate changes after iv administration in Beagle dogs. It counts as in vivo, Beagle dog. The procedure:
Beagle dogs were randomly divided into two groups, half male and half female, and were intravenously injected (iv) with 7.5% ethanol solution of compounds of the invention and control compound. Each compound was set up in two dosage groups of 0.01 mg/kg and 0.10 mg/kg.

The test system of data set [11] is β2 receptor in guinea pig tracheal smooth muscle. Nature of the data set: BA activity: guinea pig isolated trachea pre-treated with histamine. To be noted: Cavia porcellus, read-out: BA (EC50, nM). The method, then: (3) The Antagonism of the Example Compounds on β2 Receptor in Guinea Pig Tracheal Smooth Muscle
(§3) Preparation of an isolated tracheal smooth muscle specimen of a guinea pig: same as Experiment Example 1.
Administration Method: After the trachea flake was stabilized, histamine solution with a final concentration of 3×10^−5 mol/L was added for 10 min, carbachol with a final concentration of 3×10^−6 mol/L was added (observing β receptor antagonism), and administration was started when the pressure value of the trachea flake was increased to a stable platform. The experiments were divided into a blank group, a histamine+blank group, each test sample administration group and a histamine+each test sample administration group. DMSO solution prepared by K—H solution and 50 μl of test sample solution were added to each group of the blank group and each test sample administration group respectively. The histamine+blank group and histamine+each test sample administration group were added with 50 μl histamine solution for 10 min respectively, then added with DMSO solution prepared by K—H solution and 50 μl test sample solution. The test sample administration group was added with the compounds to be tested with final concentrations of 10^−9, 0.3×10^−8, 10^−8, 0.3×10^−7, 10^−7, 0.3×10^−6 and 10^−6 mol/L at cumulative concentration, and the blank group was added with corresponding diluted DMSO solution. The histamine+each test sample administration group was added with histamine for 10 min, and then added with the test compounds with final concentrations of 10^−9, 0.3×10^−8, 10^−8, 0.3×10^−7, 10^−7, 0.3×10^−6 and 10^−6 mol/L at cumulative concentration. After the histamine+blank group was added with histamine for 10 m, corresponding diluted DMSO solution was added. Medlab was used to record the relaxation degree of smooth muscle of the trachea flake. Finally theophylline with a final concentration of 2×10^−4 mol/L was added as 100% relaxation.

For data set [12], the system named is M receptor of guinea pig tracheal smooth muscle. The data set is described as follows: MA activity: guinea pig isolated trachea, propranolol blocks β receptor, CCh constriction. To be noted: Cavia porcellus; propranolol 10^−5 mol/L, CCh 3×10^−6 mol/L. The method, then:
(2) Blocking Effect of Example Compounds on M Receptor of Guinea Pig Tracheal Smooth Muscle
as §3
Administration method: After trachea flake was stabilized, propranolol hydrochloride solution with a final concentration of 10^−5 mol/L was added to block β receptor for 10 min, carbachol with a final concentration of 3×10^−6 mol/L was added (observing M receptor antagonism of compound after propranolol blocks β receptor), and administration was started when the pressure value of the trachea flake was increased to a stable platform. The experiments were divided into a blank group, a propranolol+blank group, each test sample administration group and a propranolol+each test sample administration group. DMSO solution prepared by K—H solution and 50 μl of test sample solution were added to each group of the blank group and each test sample administration group respectively. The propranolol+blank group and propranolol+each test sample administration group were added with 50 μl propranolol solution for 10 min respectively, and then added with DMSO solution prepared from K—H solution and 50 μl of test sample solution. The test sample administration group was added with the compounds to be tested with final concentrations of 10^−9, 0.3×10^−8, 10^−8, 0.3×10^−7, 10^−7, 0.3×10^−6 and 10^−6 mol/L at cumulative concentration, and the blank group was added with corresponding diluted DMSO solution. The propranolol+each test sample administration group was added with propranolol for 10 min, and then added with the compounds to be tested with final concentrations of 10^−9, 0.3×10^−8, 10^−8, 0.3×10^−7, 10^−7, 0.3×10^−6 and 10^−6 mol/L at cumulative concentration. After the propranolol+blank group was added with propranolol for 10 min, corresponding diluted DMSO solution was added. Medlab was used to record the relaxation degree of tracheal smooth muscle, finally sodium nitroprusside with a final concentration of […] was added as 100% relaxation.

Data set [13] deals with guinea pig tracheal smooth muscle (MABA). The data set is described as follows: MABA activity: relaxation of CCh pre-constricted guinea pig isolated trachea. To be noted: Cavia porcellus; CCh 3×10^−6 mol/L. The method, then: (1) The Constriction Effect of Tracheal Smooth Muscle of Guinea Pig Induced by the Example Compounds Antagonizing Carbachol (CCh)
as §3
Administration Method: After the trachea flake were stabilized, carbachol with a final concentration of 3×10^−6 mol/L was added, and administration was started when the pressure value of the trachea flake was increased to a stable platform. The experiments were divided into blank group and each test sample administration group. DMSO solution prepared from K—H solution and 50 μl of each test sample solution were added to each group respectively. The test sample administration group was added with 10^−9, 0.3×10^−8, 10^−8, 0.3×10^−7, 10^−7, 0.3×10^−6 and 10^−6 mol/L of test compound and control substance at cumulative concentration. The blank group was added with corresponding diluted DMSO solution. Medlab was used to record the relaxation degree of smooth muscle of the trachea flake. Finally, isoproterenol with a final concentration of 10^−5 mol/L was added as 100% relaxation.

The nature of data set [14]: Lung homogenate stability in vitro (dog). It counts as in vitro ADME, Beagle dog. Particulars: 8 h, 37° C. The procedure: The compounds of the invention were respectively incubated with the lung homogenate of Beagle dogs for 8 hours in a water bath at 37° C., and sample was analysed by LC-MS/MS when the reaction was terminated.
Data set [15] is described as follows: Lung homogenate stability in vitro (human). It counts as in vitro ADME. To be noted: 8 h, 37° C.

Where two headings read alike, the source gives them in different places.

Sequence of human recombinant M3 receptor (P20309 whole entry): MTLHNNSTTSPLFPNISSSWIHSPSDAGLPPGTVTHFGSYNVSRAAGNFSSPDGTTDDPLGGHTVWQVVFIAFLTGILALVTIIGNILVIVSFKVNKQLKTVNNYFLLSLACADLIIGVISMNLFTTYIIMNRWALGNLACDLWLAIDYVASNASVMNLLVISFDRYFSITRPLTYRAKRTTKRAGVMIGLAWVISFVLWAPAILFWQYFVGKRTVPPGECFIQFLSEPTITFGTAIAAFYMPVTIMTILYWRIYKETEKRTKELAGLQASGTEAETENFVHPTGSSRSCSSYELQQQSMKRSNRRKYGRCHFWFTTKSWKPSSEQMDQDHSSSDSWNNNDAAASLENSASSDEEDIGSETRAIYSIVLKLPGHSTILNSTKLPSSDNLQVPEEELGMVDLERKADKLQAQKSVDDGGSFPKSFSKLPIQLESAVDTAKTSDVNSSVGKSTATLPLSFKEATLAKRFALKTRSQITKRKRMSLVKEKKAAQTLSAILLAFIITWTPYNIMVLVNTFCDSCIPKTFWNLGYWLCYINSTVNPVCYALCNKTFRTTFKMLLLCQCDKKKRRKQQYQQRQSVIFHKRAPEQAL
T1 sequence (P08588 whole entry): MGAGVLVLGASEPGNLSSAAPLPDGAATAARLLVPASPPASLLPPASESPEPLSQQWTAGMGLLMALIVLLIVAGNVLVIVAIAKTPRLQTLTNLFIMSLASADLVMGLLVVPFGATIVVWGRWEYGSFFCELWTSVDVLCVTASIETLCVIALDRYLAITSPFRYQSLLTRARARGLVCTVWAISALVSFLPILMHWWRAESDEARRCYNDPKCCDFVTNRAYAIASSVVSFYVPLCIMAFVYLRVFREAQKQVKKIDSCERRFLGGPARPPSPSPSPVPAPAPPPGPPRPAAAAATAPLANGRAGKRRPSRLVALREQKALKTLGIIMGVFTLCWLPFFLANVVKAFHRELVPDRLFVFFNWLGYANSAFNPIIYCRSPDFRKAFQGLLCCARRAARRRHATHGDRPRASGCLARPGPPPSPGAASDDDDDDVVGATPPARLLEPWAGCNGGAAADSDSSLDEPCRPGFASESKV

Usually EC50 stands for the concentration at which the effect is half-maximal. Regarding `OCc1cc([C@@H](O)CNCCC[N+]23CCC(CC2)[C@@H](OC[C@@](O)(c2ccccc2)C2CCCC2)C3)ccc1O` [Compound 1, (R)-(−)-3-[(R)-2-hydroxy-2-cyclopentyl-2-phenyl]ethoxy-1-{3-[(R)-2-(3-hydroxymethyl-4-hydroxy)phenyl-2-hydroxyethylamino]propyl}-1-azabicyclo[2,2,2]octylonium bromide], the EC50 in data set [1] worked out at 197 ± 87 nM. For the same molecule, in data set [2], the “sel (β1/β2)” value was determined as 15.4 and the EC50 came to 12.8 ± 4.2 nM. Moreover, in data set [3], the Ki was found to be 0.561 ± 0.22 nM, the M1/M3 is 0.7653 and the M2/M3 amounted to 0.5795. Moreover, the Ki in data set [4] came out at 0.968 ± 0.15 nM. In data set [5], the Ki came to 0.733 ± 0.32 nM and the M1/M2 was 1.3206. Besides, in [6], the “Onset time (min) ± SD” value is on record as 6.82 ± 0.30 min and the “Time for eliminating inhibition effect (min)” value is “more than 300 min”. Also, the concentration giving a half-maximal response (EC50) in [6] (Cavia porcellus) was found to be 0.767 ± 0.18 µM.
As to `OCc1cc([C@@H](O)CNCCCC[N+]23CCC(CC2)[C@@H](OC[C@@](O)(c2ccccc2)C2CCCC2)C3)ccc1O` [Compound 3, (R)-(−)-3-[(R)-2-hydroxy-2-cyclopentyl-2-phenyl]ethoxy-1-{4-[(R)-2-(3-hydroxymethyl-4-hydroxy)phenyl-2-hydroxyethylamino]butyl}-1-azabicyclo[2,2,2]octylonium bromide], the EC50 in data set [1] stood at 160 ± 72 nM. Further, in [2], the “sel (β1/β2)” value was found to be 15.6 and the EC50 was 10.3 ± 2.4 nM. Besides, in data set [3], the Ki is 0.451 ± 0.18 nM, the M1/M3 came to 0.5880 and the M2/M3 is 0.4808. For the same molecule, the Ki in [4] was 0.938 ± 0.4 nM. In [5], the Ki worked out at 0.767 ± 0.16 nM and the M1/M2 came to 1.2229. For the same molecule, in data set [6], the “Onset time (min) ± SD” value was 5.38 ± 0.68 min and the “Time for eliminating inhibition effect (min)” value was “more than 300 min”. Further, the EC50 in [6] (Cavia porcellus) stood at 0.355 ± 0.1 µM.
Take `O=CNc1cc([C@@H](O)CNCc2c(Cl)cc(OCCC[N+]34CCC(CC3)[C@@H](OC[C@](O)(c3ccccc3)C3CCCC3)C4)cc2Cl)ccc1O.[Br-]` [Compound 59, (R)-(−)-3-[(R)-2-hydroxy-2-cyclopentyl-2-phenyl]ethoxy-1-{3-[(3,5-dichloro-4-(1-{(R)-[2-hydroxy-2-(3-formamido-4-hydroxy)phenyl]ethylamino}methyl)phenoxy)propyl}-1-azabicyclo[2,2,2]octylonium bromide]: the EC50 in [1] (cAMP accumulation, 10 nM ICI118551 added, HEK293 cells, read-out: EC50 (β1)) was determined as 83 ± 31 nM; in data set [2], 0.32 ± 0.12 nM; in data set [6], 0.0165 ± 0.0075 µM. For the same molecule, the Ki in [3] (3H-QNB […], 25° C., 5 h, read-out: hM3Ki) amounted to 0.131 ± 0.022 nM; in data set [4] (3H-QNB 1.81 nmol/L, 25° C., 5 h, read-out: hM2Ki) it was 2 ± 0.89 nM; in data set [5] (3H-QNB […], 25° C., 5 h, read-out: hM1Ki), 0.283 ± 0.018 nM.
In the case of `O=CNc1cc([C@@H](O)CNCc2c(Cl)cc(OCCC[N+]34CCC(CC3)[C@@H](OC[C@](O)(c3ccccc3)C3CCCC3)C4)cc2Cl)ccc1O.[Br-]` [Compound 59], the “sel (β1/β2)” value in [2] is on record as 213.4. Further, in data set [3], the M1/M3 worked out at 0.4629 and the M2/M3 is listed as 0.0656. For the same molecule, the M1/M2 in data set [5] was 7.0601. In addition, in [6], the “Onset time (min) ± SD” value was determined as 6.53 ± 0.66 min and the “Time for eliminating inhibition effect (min)” value was “more than 300 min”.
In the case of `O=c1ccc2c([C@@H](O)CNCCCOc3ccc(OCCC[N+]45CCC(CC4)[C@@H](OC[C@@](O)(c4ccccc4)C4CCCC4)C5)cc3)ccc(O)c2[nH]1.[Br-]` [Compound 131], the “liver extraction rate (ERh)” value in data set [7] was determined as 0.93; in data set [8], 0.93; in [9], 0.99. The “0.5-4 h area increase under heart rate curve (%)” value in data set [10] (0.01 mg/kg iv) is 10%; in data set [10] (0.10 mg/kg iv), 2.9%. Also, the EC50 was determined as 9.2 ± 1.6 nM in data set [11], 30.2 ± 8.1 nM in data set [12] and 4 ± 1 nM in [13]. For the same molecule, the “Residual rate after incubation of dog lung homogenate (%)” value in [14] is listed as 94%. The “Residual rate after incubation of human lung homogenate (%)” value in data set [15] stood at 90%.

These data come from US11447485B2, “Class of bifunctional compounds with quanternary ammonium salt structure” (Beijing Showby Pharmaceutical Co., Ltd., priority 2016, dated 2022).
